Reference: patent US12691100B2, “NMT inhibitor treatment of a senescence-associated disease or disorder of the liver” (Imperial College Innovations Limited, priority 2020, dated 2026)

Key:
[1] = system: HCT116 colon cancer cells; assay: Senolytic survival assay, chemotherapy-induced senescence in cancer cells; type: cell-based, human; settings: for Survival, senescent versus control cells: second experiment: doxorubicin 100 nM, etoposide 2 μM or cisplatin 100 μM, or DMSO, replenished after 72 h, 48 h more, FIGS. 7A-C
Experimental: IMR90 cells were used to generate inducible ER:RAS (hereinafter iRAS) cells to model Oncogene induced senescence (OIS), through retroviral infection of pLNC-ER:RAS-neo into IMR90 cells followed by selection with Neomycin. IMR90 cells containing the pLNC-ER:RAS plasmid backbone pLXSN were infected in parallel to assess leakiness in the pLNC-ER:RAS system. Treatment with 100 nM 4OHT (Sigma, in DMSO) was used to induce IMR90 ER:RAS cells to undergo oncogene induced senescence (OIS). Therapy induced senescence (TIS) was induced in IMR90 cells by treatment with 33 μM (50 ug/ml) bleomycin sulphate (Generon, HY-17565) for 24 hours, 20 μM palbociclib (Selleckchem, S1116) for 7 days or 100 nM doxorubicin (Cayman chemical, 15007) for 7 days. Senescence was induced in SK-HEP-1 cells by treatment with 2 μM etoposide (Sigma-Aldrich, E1383) for 7 days (FIGS. 4A-C). HCT-116 senescence was induced by 250 nM treatment with doxorubicin (Cayman chemical, 15007) for 48 hours followed by 5 days culture in media without chemotherapy (FIG. 5), or by treatment with 100 nM doxorubicin, 2 μM etoposide or 100 μM cisplatin for 3 days followed by 4 days culture in media without chemotherapy (FIGS. 6A-7C). Senescence was induced in MCF7 by 200 nM treatment with doxorubicin for 7 days, 2 μM etoposide for 7 days or 10 μM cisplatin for 7 days (FIGS. 8A-9C).
High-throughput microscopy survival assay—To assess senolytic effect of drugs, cells were cultured for 7 days, culture media was changed to DM0.5 media and drugs in DMSO were added (<5% v/v final concentration), drugs were replenished after 3 days if assay length was longer than 72 h. Wells were fixed in 4% PFA for 1 hour at day 10 to 14, washed 3 times with PBS and then stained with 1 μg/mL DAPI (w/v, PBS) for 10 minutes. Wells were then washed 3 times with PBS. Optionally plates could be stored at 4° C. for up to 2 weeks and DAPI stained. Image acquisition of DAPI stained cells was performed on an automated InCell Analyser 2000 (GE Healthcare®) and high-content analysis on the InCell Investigator 2.7.3 software used to quantify number of DAPI positive cells per well. […] Survival was measured as cell counts relative to DMSO treated quiescent or senescent cells.
In a first experiment, HCT116 colon cancer cells were treated with doxorubicin (to induce senescence), or DMSO (as a control). […] 7 days after adding the drugs with replenishment after 3 days, cells were fixed, imaged and cells numbers were quantified using high throughput microscopy. […]
In a second experiment, HCT116 were treated with doxorubicin, etoposide or cisplatin (to induce senescence) or DMSO (as a control). 7 days after treatment, BrdU incorporation (to assess cell division), SA-β-Galactosidase activity and p21^CIP1 expression (as markers of senescence) were analysed. […]

[2] = Liver lipids (Oil Red O) and blood glucose in the same cohort of old mice; type: in vivo, C57BL/6J female mice; settings: 10 mg/kg i.p.
Experimental: For analysis of immune cell composition in whole blood, tail-vein blood was collected 2 days after last treatment. Whole blood was diluted in saline to a volume of […] and ran on a Sysmex XE2100 automated cell counter. Blood glucose levels were determined by collecting whole-blood from tail vein into heparinised tubes (Abraxis), 120-140 μL of whole-blood to be loaded onto a comprehensive diagnostic profile reagent rotor (Abraxis) and run on a VetScan VS2 Chemistry Analyzer (Abraxis: 500-7123).
Oil Red O staining for lipids was carried out on liver tissue in OCT was snap-frozen in liquid N2 and cryosectioned (15 μM). Sections were equilibrated to RT for 10 min and then stained with 0.5% Oil Red O solution (w/v, in isopropanol, Sigma, O1391) for 5 min, rinsed in tap water and counterstained with Mayer's hematoxylin for 30 s. Then sections were again rinsed in tap water for 30 min and coverslips mounted. Images were acquired on Zeiss AxioScan Z.1 and ImageJ quantification of Oil-red stain area relative to background tissue area performed for 3 fields per section.
To understand what effects are associated with the treatment with NMT inhibitors in vivo, we analysed different parameters in the same cohort of old mice described in FIG. 17A. First, we looked into the accumulation of lipid droplets in the liver using Oil Red O staining. These are an indication of hepatic steatosis, and importantly, elimination of senescent cells has been previously shown capable to reduce steatosis.
Other pathological change observed in old mice is the presence of increased levels of glucose in blood. This can be related with diabetes or metabolic disease. Importantly, both pathologies have been associated with the presence of senescent cells.

| SMILES | Survival (cell counts relative to DMSO), senescent versus control cells ([1]; first experiment: doxorubicin or DMSO, compound added 7 days after induction, read 7 days later, FIG. 5) | Survival, senescent versus control cells [1] | Glucose in blood, fasted mice ([2]; old mice fasted, FIG. 18C) | Glucose in blood, fed mice ([2]; old mice kept fed, FIG. 18B) | Accumulation of lipids in the liver (Oil Red O staining) ([2]; ~26 month female mice, FIG. 18A) |
| --- | --- | --- | --- | --- | --- |
| Cc1nn(C)c(C)c1CCOc1c(-c2ccc3c(c2)c(CN(C)C)nn3C)ccc(F)c1F [Compound 1, 1-(5-(3,4-difluoro-2-(2-(1,3,5-trimethyl-1H-pyrazol-4-yl)ethoxy)phenyl)-1-methyl-1H-indazol-3-yl)-N,N-dimethylmethanamine] | preferentially kills cancer cells that undergo senescence after being treated with doxorubicin | preferentially kill cancer cells that undergo senescence after being treated with doxorubicin, etoposide or cisplatin |  |  |  |
| Cc1c(NS(=O)(=O)c2c(Cl)cc(-c3ccnc(N4CCNCC4)c3)cc2Cl)c(CC(C)C)nn1C [Compound 2] |  | preferentially kill cancer cells that undergo senescence after being treated with doxorubicin, etoposide or cisplatin | lower levels of glucose | lower levels of glucose | reduced accumulation of lipids in the liver |
